This is an account of results in patent publication US20260224688A1, “HELPER LIPIDS FOR NUCLEIC ACID DELIVERY” (SANOFI PASTEUR INC., priority 2023, published 2026).

The nature of series [1]: Dynamic light scattering of lipid nanoparticles (size, PDI). The format is physicochemical. As to the method: (§1) Lipid nanoparticle formulations 3 were prepared by Process A at a molar ratio of 40:1.5:30:28.5 (Cationic Lipid: DMG-PEG2000: Cholesterol: Helper Lipid) with the cationic lipids and helper lipids disclosed in the tables below. The Polydispersity Index (Pdl) of lipid nanoparticles can be determined by diluting the formulation in 10% trehalose at about 0.1 mg/ml mRNA concentration and then measuring the size on Malvern zetasizer. The lipid nanoparticle size can be obtained with Malvern Zetasizer Nano-ZS.
Dynamic light scattering (DLS) measurements were performed using a Malvern Instruments Zetasizer with a backscattering detector angle of 173° and a 4-mW, 633-nm He—Ne laser (Worcestershire, UK). The samples were analyzed by diluting in 10% Trehalose and measuring the size and Poly dispersity Index (PDI) in an optical grade polystyrene cuvette.

A short description of series [2]: mRNA encapsulation efficiency of lipid nanoparticles. The format is physicochemical. The following applies: for Encapsulation efficiency (EE): LNP with cationic lipid CL-A.
Text: In embodiments, the lipid nanoparticle encapsulates a nucleic acid, optionally an mRNA encoding a peptide or protein. In embodiments, the lipid nanoparticle encapsulates an mRNA encoding a peptide or protein, optionally for use in a vaccine. In embodiments, the peptide is an antigen. As used herein, the phrase “encapsulation percentage” refers to the fraction of therapeutic agent (e.g. mRNA) that is effectively encapsulated within a liposomal-based vehicle (e.g. a lipid nanoparticle) relative to the initial fraction of therapeutic agent present in the lipid phase. In embodiments, the lipid nanoparticles have an encapsulation percentage for mRNA of at least 50%. In embodiments, the lipid nanoparticles have an encapsulation percentage for mRNA of at least 55%. In embodiments, the lipid nanoparticles have an encapsulation percentage for mRNA of at least 60%. In embodiments, the lipid nanoparticles have an encapsulation percentage for mRNA of at least 65%. In embodiments, the lipid nanoparticles have an encapsulation percentage for mRNA of at least 70%. In embodiments, the lipid nanoparticles have an encapsulation percentage for mRNA of at least 75%. In embodiments, the lipid nanoparticles have an encapsulation percentage for mRNA of at least 80%. In embodiments, the lipid nanoparticles have an encapsulation percentage for mRNA of at least 85%. In embodiments, the lipid nanoparticles have an encapsulation percentage for mRNA of at least 90%. In embodiments, the lipid nanoparticles have an encapsulation percentage for mRNA of at least 95%. In embodiments, the encapsulation percentage is calculated by performing the Ribogreen assay (Invitrogen) with and without the presence of 0.1% Triton-X 100.
The lipid nanoparticles in the examples of the present invention were formulated using Process A of WO 2018/089801 (see, e.g., Example 1 and FIG. 1 of WO 2018/089801). Process A (“A”) relates to a conventional method of encapsulating mRNA by mixing mRNA with a mixture of lipids, without first pre-forming the lipids into lipid nanoparticles. In an exemplary process, an ethanolic solution of a mixture of lipids (cationic lipid, phosphatidylethanolamine, cholesterol, and polyethylene glycol-lipid) at a fixed lipid to mRNA ratio were combined with an aqueous buffered solution of target mRNA at an acidic pH under controlled conditions to yield a suspension of uniform LNPs. After ultrafiltration and diafiltration into a suitable diluent system, the resulting nanoparticle suspensions were diluted to final concentration, filtered, and stored frozen at −80° C. until use.
as §1

Series [3] has as its system hEPO. In words: IV EPO expression of LNPs (tail vein injection). Format: in vivo, female BALB/cJ mice. The following applies: cationic lipid CL-0137, helper lipid 30 mol %; 0.017 μg EPO mRNA tail vein; 6 hours; DOPE = 1. Here is the method:
Lipid nanoparticles were formulated containing the four lipid components shown below at a ratio of 40:30:28.5:1.5, complexed with a hEPO messenger RNA. • Cationic lipid CL-0137, 40 mol % • Helper lipid, 30 mol % • Cholesterol, 28.5 mol % • DMG-PEG-2K (1,2-dimyristoyl-rac-glycero-3-methoxypolyethyleneglycol), 1.5 mol %
EPO expression studies were conducted with female BALB/cJ mice 6-8 weeks of age. Mice were dosed with 0.017 μg EPO mRNA LNPs in a volume of 5 ul by a single tail vein injection. Blood samples were taken 6 hours post injection and hEPO levels were measured in the blood serum of the mice using an ELISA assay according to the manufacture's protocol.

For series [4], the system named is hEPO. Nature of the series: IM EPO expression of LNPs containing new helper lipids (hEPO in serum by ELISA). The format is in vivo, female BALB/cJ mice. The conditions noted are these: single IM injection. Here is the method:
Lipid nanoparticles were formulated containing the four lipid components shown below at a ratio of 40:30:28.5:1.5, complexed with a hEPO messenger RNA. • Cationic lipid, 40 mol % • Phospholipid (PEA) helper lipid, 30 mol % • Cholesterol, 28.5 mol % • DMG-PEG-2K (1,2-dimyristoyl-rac-glycero-3-methoxypolyethyleneglycol), 1.5 mol % The cationic lipid component of each formulation was selected from the compounds in the table below: […]
EPO expression studies were conducted with female BALB/cJ mice 6-8 weeks of age. Mice were dosed with […] EPO mRNA in 30 μL of LNPs by a single intramuscular (IM) injection into the gastrocnemius leg muscle. Blood samples were taken 6 and 24 hours post injection and hEPO levels were measured in the blood serum of the mice using an ELISA assay according to the manufacture's protocol. WO2022/099003 A1 also describes an in vivo assay for intramuscular administration (e.g. on page 46, paragraph [00206]).
On the technique in general: In an ELISA, binding on a coated surface is turned into a signal by an enzyme label.

The mark [5] stands for this setting: LNP with cationic lipid CL-A, hEPO mRNA, 40:30:28.5:1.5.
[6] abbreviates: CL-A LNP, 0.1 μg EPO mRNA in 30 μL, serum 6 hours post injection.
Setting [7] is: CL-B LNP, serum 6 hours post injection.

In the case of `CCCCCCCCC(CCCCCCCC)OC(=O)CCCCCC(=O)OCC(COP(=O)(O)OCCN(C)C)OC(=O)CCCCCC(=O)OC(CCCCCCCC)CCCCCCCC` (stereo not drawn) [Compound 15, O′^1,O^1-(3-(((2-(Dimethylamino)ethoxy)(hydroxy)phosphoryl)oxy)propane-1,2-diyl) 7-di(heptadecan-9-yl) di(heptanedioate)], the “Polydispersity Index (PDI)” value in series [1] (LNP with cationic lipid CL-A) came to 0.083. In addition, the results for the Size in series [1] (setting [5]), in series [1] (LNP with cationic lipid CL-B) and in series [1] (LNP with cationic lipid CL-C) were 138 nm, 110.7 nm and 108.0 nm, respectively. The PDI in series [1] (LNP with cationic lipid CL-B) amounted to 0.087; in series [1] (LNP with cationic lipid CL-C), 0.091. Also, the “Encapsulation efficiency (EE)” value in series [2] is 95%. The results for the EE in series [2] (LNP with cationic lipid CL-B) and in series [2] (LNP with cationic lipid CL-C) were 94% and 91%, respectively. In addition, the “Normalized Mean IV EPO expression” value in the series with hEPO [3] stood at 2.24. For the same compound, the “6-h EPO” value is 25.3 ng/mL in the series with hEPO [4] (setting [6]); 30 ng/mL with hEPO [4] (setting [7]); 15.2 ng/mL with hEPO [4] (CL-C LNP, (6-h)).

In the case of `CC(C)CCCCOC(=O)CCCCCCC(=O)OCC(COP(=O)(O)OCCN(C)C)OC(=O)CCCCCCC(=O)OCCCCC(C)C` (stereo not drawn) [Compound 8, O′^1,O^1-(3-(((2-(Dimethylamino)ethoxy)(hydroxy)phosphoryl)-oxy)propane-1,2-diyl) 8-bis(5-methylhexyl) di(octanedioate)], in series [1] (LNP with cationic lipid CL-A), the “Polydispersity Index (PDI)” value is 0.06. Also, the Size in series [1] (setting [5]) was 116 nm; in series [1] (LNP with cationic lipid CL-B) it was 92.3 nm; in series [1] (LNP with cationic lipid CL-C), 91.1 nm; in series [1] (LNP with cationic lipid CL-D), 151.4 nm. The PDI in series [1] (LNP with cationic lipid CL-B) was found to be 0.146; in series [1] (LNP with cationic lipid CL-C), 0.102; in series [1] (LNP with cationic lipid CL-D) it was 0.061. In series [2], the “Encapsulation efficiency (EE)” value is 89%. Moreover, the EE came out at 18% in series [2] (LNP with cationic lipid CL-B), 87% in series [2] (LNP with cationic lipid CL-C) and 28% in series [2] (LNP with cationic lipid CL-D). Further, the “Normalized Mean IV EPO expression” value in the series with hEPO [3] was 0.29. Moreover, the “6-h EPO” value with hEPO [4] (CL-C LNP) turned out to be 0.5 ng/mL; in the series with hEPO [4] (CL-C LNP, (6-h)) it was 1.4 ng/mL.

In the case of `CCCCCCCCC(CCCCC)COC(=O)CCC(=O)OCC(COP(=O)(O)OCCN)OC(=O)CCC(=O)OCC(CCCCC)CCCCCCCC` (stereo not drawn) [Compound 4, O,O′-(3-(((2-Aminoethoxy)(hydroxy)phosphoryl)oxy)propane-1,2-diyl) bis(2-pentyldecyl) disuccinate], in series [1] (LNP with cationic lipid CL-A), the “Polydispersity Index (PDI)” value was found to be 0.048. In addition, the Size stood at 125 nm in series [1] (setting [5]), 104.7 nm in series [1] (LNP with cationic lipid CL-B) and 109.5 nm in series [1] (LNP with cationic lipid CL-C). The PDI in series [1] (LNP with cationic lipid CL-B) is on record as 0.112; in series [1] (LNP with cationic lipid CL-C), 0.123. Moreover, in series [2], the “Encapsulation efficiency (EE)” value is recorded as 85%. The EE in series [2] (LNP with cationic lipid CL-B) is reported as 86%; in series [2] (LNP with cationic lipid CL-C) it was 87%. In addition, in the series with hEPO [3], the “Normalized Mean IV EPO expression” value was 2.38. Also, the “6-h EPO” value in the series on hEPO [4] (setting [7]) amounted to 13.7 ng/mL; in the series with hEPO [4] (CL-C LNP), 20.1 ng/mL; with hEPO [4] (CL-C LNP, (6-h)), 22.3 ng/mL. Besides, the “24-h EPO” value in the series on hEPO [4] (CL-B LNP, serum 24 hours post injection) is 11.6 ng/mL.

Consider `CCCCCCCCC(CCCCCCCC)OC(=O)CCCCCCC(=O)OCC(COP(=O)(O)OCCN(C)CCO)OC(=O)CCCCCCC(=O)OC(CCCCCCCC)CCCCCCCC` (stereo not drawn) [Compound 25], for which the “Polydispersity Index (PDI)” value in series [1] (LNP with cationic lipid CL-A) came out at 0.121. Besides, the Size in series [1] (setting [5]) is listed as 137 nm; in series [1] (LNP with cationic lipid CL-B) it was 120.1 nm; in series [1] (LNP with cationic lipid CL-C), 92.2 nm. For the same compound, the PDI in series [1] (LNP with cationic lipid CL-B) was 0.151; in series [1] (LNP with cationic lipid CL-C) it was 0.142. Also, the “Encapsulation efficiency (EE)” value in series [2] was found to be 93%. The EE in series [2] (LNP with cationic lipid CL-B) amounted to 95%; in series [2] (LNP with cationic lipid CL-C) it was 93%. Besides, the “Normalized Mean IV EPO expression” value in the series on hEPO [3] is 1.24. For the same compound, the “6-h EPO” value is listed as 16.5 ng/mL in the series with hEPO [4] (setting [6]); 44.5 ng/mL with hEPO [4] (setting [7]); 56.5 ng/mL in the series with hEPO [4] (CL-C LNP, (6-h)).

As to `CCCCCCCCC(CCCCCCCC)OC(=O)CCCCCCCC(=O)OCC(COP(=O)(O)OCCN(C)C)OC(=O)CCCCCCCC(=O)OC(CCCCCCCC)CCCCCCCC` (stereo not drawn) [Compound 16, O′^1,O^1-(3-(((2-(Dimethylamino)ethoxy)(hydroxy)phosphoryl)oxy)propane-1,2-diyl) 9-di(heptadecan-9-yl) di(nonanedioate)], in series [1] (LNP with cationic lipid CL-A), the “Polydispersity Index (PDI)” value is given as 0.052. Also, the Size amounted to 128 nm in series [1] (setting [5]), 108.1 nm in series [1] (LNP with cationic lipid CL-B) and 102.7 nm in series [1] (LNP with cationic lipid CL-C). Also, the PDI stood at 0.069 in series [1] (LNP with cationic lipid CL-B) and 0.077 in series [1] (LNP with cationic lipid CL-C). In series [2], the “Encapsulation efficiency (EE)” value came out at 95%. In addition, the EE in series [2] (LNP with cationic lipid CL-B) worked out at 94%; in series [2] (LNP with cationic lipid CL-C), 91%. Also, the “Normalized Mean IV EPO expression” value in the series on hEPO [3] stood at 1.59. The “6-h EPO” value came out at 17.4 ng/mL in the series on hEPO [4] (setting [6]); 32.1 ng/mL in the series on hEPO [4] (setting [7]); 9.7 ng/mL in the series on hEPO [4] (CL-C LNP, (6-h)).

`CCCCCCCCC(CCCCCCCC)C(=O)OCCCCCC(=O)OCC(COP(=O)(O)OCCN(C)C)OC(=O)CCCCCOC(=O)C(CCCCCCCC)CCCCCCCC` (stereo not drawn) [Compound 17, ((3-(((2-(Dimethylamino)ethoxy)(hydroxy)phosphoryl)oxy)propane-1,2-diyl)bis(oxy))bis(6-oxohexane-6,1-diyl) bis(2-octyldecanoate)]: in series [1] (LNP with cationic lipid CL-A), the “Polydispersity Index (PDI)” value was 0.071. In addition, the Size in series [1] (setting [5]) is on record as 137 nm; in series [1] (LNP with cationic lipid CL-B), 122.7 nm; in series [1] (LNP with cationic lipid CL-C), 110.9 nm. Further, the PDI stood at 0.022 in series [1] (LNP with cationic lipid CL-B) and 0.054 in series [1] (LNP with cationic lipid CL-C). The “Encapsulation efficiency (EE)” value in series [2] is 93%. Also, the EE in series [2] (LNP with cationic lipid CL-B) stood at 81%; in series [2] (LNP with cationic lipid CL-C) it was 60%. Besides, the “Normalized Mean IV EPO expression” value in the series with hEPO [3] came out at 4.53. In addition, the “6-h EPO” value with hEPO [4] (setting [6]) is given as 16.3 ng/mL; in the series on hEPO [4] (setting [7]) it was 14.5 ng/mL; with hEPO [4] (CL-C LNP, (6-h)), 31.7 ng/mL.
